Like-named read-outs stand apart in the source and are kept apart here.
Assays:
Human Cot = Human Cot (Homo sapiens (Human), UniProt P41279); test: High Throughput Cot Biochemical Assay
TNFα = test: Cot Monocyte TNFα Cell Based Assay
[1] = IC50 HTRF, Cot HTRF (TR-FRET KinEASE) biochemical assay, 400 μM ATP
[2] = Homo sapiens, Monocyte, read-out: EC50 TNF, LPS-stimulated human monocytes, TNFα TR-FRET
[3] = IC50 HTRF, Cot HTRF (TR-FRET) biochemical assay
[4] = Homo sapiens, Monocyte, read-out: EC50 TNF, LPS-stimulated human monocytes, TNFα
[5] = read-out: IC50 HTRF, Cot HTRF (TR-FRET) biochemical assay
[6] = read-out: EC50 TNF, LPS-stimulated human monocytes, TNFα

Sequence of Human Cot (P41279 30-397): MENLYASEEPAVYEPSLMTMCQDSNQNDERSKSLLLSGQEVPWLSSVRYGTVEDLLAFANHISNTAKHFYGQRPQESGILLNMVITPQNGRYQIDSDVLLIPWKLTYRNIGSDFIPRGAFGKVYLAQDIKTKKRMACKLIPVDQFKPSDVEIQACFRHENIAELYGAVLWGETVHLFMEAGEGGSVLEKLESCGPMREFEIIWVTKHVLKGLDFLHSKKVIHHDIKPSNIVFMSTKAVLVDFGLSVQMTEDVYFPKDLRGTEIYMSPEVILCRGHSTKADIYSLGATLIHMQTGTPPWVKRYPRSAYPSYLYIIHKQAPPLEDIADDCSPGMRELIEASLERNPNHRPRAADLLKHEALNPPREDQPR

SMILES | IC50 (Human Cot; [3]) | EC50 (TNFα; [4]) | other results
COc1c([C@@H](Nc2cc(C#N)c3ncc(C#N)c(NCC(C)(C)C)c3c2)c2ccc(F)nc2C)nnn1C12CC(C1)C2 [Example 868, (S)-6-(((1-(bicyclo[1.1,1]pentan-1-yl)-5-methoxy-1H-1,2,3-triazol-4-yl)(6-fluoro-2-methylpyridin-3-yl)methyl)amino)-4-(neopentylamino)quinoline-3,8-dicarbonitrile] | – | – | IC50 (Human Cot; [1]): 2 nM; EC50 (TNFα; [2]): 70 nM
[2H][C@](Nc1cc(Cl)c2ncc(C#N)c(NCC(C)(C)C)c2c1)(c1cccnc1)c1cn(C2CC2)nn1 [Example 141, (S)-8-chloro-6-(((1-cyclopropyl-1H-1,2,3-triazol-4-yl)(pyridin-3-yl)methyl-d)amino)-4-(neopentylamino)quinoline-3-carbonitrile] | 2 nM | 121 nM | –
Cn1ccc2c([C@H](Nc3cc(Cl)c4ncc(C#N)c(NCC(C)(C)C)c4c3)c3cn(C4CCC4)nn3)cccc2c1=O [Example 796, (S)-8-chloro-6-(((1-cyclobutyl-1H-1,2,3-triazol-4-yl)(2-methyl-1-oxo-1,2-dihydroisoquinolin-5-yl)methyl)amino)-4-(neopentylamino)quinoline-3-carbonitrile] | 2 nM | 31 nM | –
N#Cc1cnc2c(Cl)cc(N[C@@H](c3cccnc3)c3cn(CCOCCO)nn3)cc2c1Nc1ccc(F)c(Cl)c1 [Example 341, (S)-8-chloro-4-((3-chloro-4-fluorophenyl)amino)-6-(((1-(2-(2-hydroxyethoxy)ethyl)-1H-1,2,3-triazol-4-yl)(pyridin-3-yl)methyl)-amino)quinoline-3-carbonitrile] | 6 nM | 843 nM | –
Cc1nc(F)ccc1[C@H](Nc1cc(C#N)c2ncc(C#N)c(NCC3(C(F)(F)F)CCC3)c2c1)c1cn(C2(C(F)F)CC2)nn1 [Example 831, (S)-6-(((1-(1-(difluoromethyl)-cyclopropyl)-1H-1,2,3-triazol-4-yl)(6-fluoro-2-methylpyridin-3-yl)methyl)amino)-4-(((1-(trifluoromethyl)cyclobutyl)methyl)-amino)quinoline-3,8-dicarbonitrile] | – | – | IC50 (Human Cot; [1]): 8 nM; EC50 (TNFα; [2]): 202 nM
CC(C)(C)CNc1c(C#N)cnc2c(Cl)cc(N[C@H](c3cn(C45CC(C4)C5)nn3)c3cccc4c(=O)[nH]ccc34)cc12 [Example 787, (S)-6-(((1-(bicyclo[1.1.1]pentan-1-yl)-1H-1,2,3-triazol-4-yl)(1-oxo-1,2-dihydroisoquinolin-5-yl)methyl)amino)-8-chloro-4-(neopentylamino)quinoline-3-carbonitrile] | 2 nM | 65 nM | –
Cc1nc(F)ccc1[C@H](Nc1cc(Cl)c2ncc(C#N)c(NCC(C)(C)C)c2c1)c1cn(C(C)(C)C)nn1 [Example 530, (S)-6-(((1-(tert-butyl)-1H-1,2,3-triazol-4-yl)(6-fluoro-2-methylpyridin-3-yl)methyl- )amino)-8-chloro-4-(neopentylamino)-quinoline-3-carbonitrile] | – | – | IC50 (Human Cot; [5]): 3 nM; EC50 (TNFα; [6]): 70 nM
CC(C)(C)CNc1c(C#N)cnc2c(C#N)cc(N[C@@H](c3ccc4cccnc4c3)c3cn(C4(C(F)F)CC4)nn3)cc12 [Example 708, (S)-6-(((1-(1-(difluoromethyl)cyclopropyl)-1H-1,2,3-triazol-4-yl)(quinolin-7-yl)methyl)amino)-4-(neopentylamino)quinoline-3,8-dicarbonitrile] | 6 nM | 176 nM | –
CC1(C)COCC[C@H]1Nc1c(C#N)cnc2c(C#N)cc(N[C@H](c3cn(C4(C(F)(F)F)CC4)nn3)c3cccc4ncsc34)cc12 [Example 474, 6-(((S)-benzo[d]thiazol-7-yl(1-(1-(trifluoromethyl)cyclopropyl)-1H-1,2,3-triazol-4-yl)methyl)amino)-4-(((R)-3,3-dimethyltetrahydro-2H-pyran-4-yl)amino)quinoline-3,8-dicarbonitrile] | 2 nM | 26 nM | –
Cn1ccc2c([C@H](Nc3cc(C#N)c4ncc(C#N)c(NCC(C)(C)C)c4c3)c3cn(C4(C)COC4)nn3)cccc2c1=O [Example 853, (S)-6-(((2-methyl-1-oxo-1,2-dihydroisoquinolin-5-yl)(1-(3-methyloxetan-3-yl)-1H-1,2,3-triazol-4-yl)methyl)amino)-4-(neopentylamino)quinoline-3,8-dicarbonitrile] | – | – | IC50 (Human Cot; [1]): 1 nM; EC50 (TNFα; [2]): 98 nM
Cc1ncsc1[C@H](Nc1cc(Cl)c2ncc(C#N)c(Nc3ccc(Cl)c(Cl)c3F)c2c1)c1cn(C(C)C)nn1 [Example 235, (R)-8-chloro-4-((3,4-dichloro-2-fluorophenyl)amino)-6-(((1-isopropyl-1H-1,2,3-triazol-4-yl)(4-methylthiazol-5-yl)methyl)amino)quinoline-3-carbonitrile] | 17 nM | 370 nM | –
N#CCCC(Nc1c(C#N)cnc2c(Cl)cc(N[C@H](c3cn(C4[C@H]5CN(C6COC6)C[C@@H]45)nn3)c3csc4c3CCN(C3COC3)C4)cc12)c1ccccc1 (stereo partly drawn) [Example 82, 8-chloro-4-((3-cyano-1-phenylpropyl)amino)-6-(((S)-(1-((1R,5S,6r)-3-(oxetan-3-yl)-3-azabicyclo[3.1 0]hexan-6-yl)-1H-1,2,3-triazol-4-yl)(6-(oxetan-3-yl)-4,5,6,7-tetrahydrothieno[2,3-c]pyridin-3-yl)methyl)amino)-quinoline-3-carbonitrile] | – | – | IC50 (Human Cot; [5]): 2 nM; EC50 (TNFα; [6]): 151 nM
[2H]C(Nc1cc(Cl)c2ncc(C#N)c(NCC(C)(C)C)c2c1)(c1cn(C2CC2)nn1)c1cccnc1Cl (centres unmarked) [Example 126, 8-chloro-6-(((2-chloropyridin-3-yl)(1-cyclopropyl-1H-1,2,3-triazol-4-yl)methyl-d)amino)-4-(neopentylamino)quinoline-3-carbonitrile] | 3 nM | 146 nM | –
CC(C)(C)CNc1c(C#N)cnc2c(Cl)cc(N[C@H](c3cn(C4CC4)nn3)c3cccc4ccncc34)cc12 [Example 504, (S)-8-chloro-6-(((1-cyclopropyl-1H-1,2,3-triazol-4-yl)(isoquinolin-8-yl)methyl)amino)-4-(neopentylamino)quinoline-3-carbonitrile] | 1 nM | 38 nM | –
COc1c([C@@H](Nc2cc(Cl)c3ncc(C#N)c(NCC(C)(C)C)c3c2)c2ccc(F)nc2C)nnn1C1(C(F)F)CC1 [Example 965, (S)-8-chloro-6-(((1-(1-(difluoromethyl)cyclopropyl)-5-methoxy-1H-1,2,3-triazol-4-yl)(6-fluoro-2-methylpyridin-3-yl)methyl)amino)-4-(neopentylamino)quinoline-3-carbonitrile] | – | – | IC50 (Human Cot; [1]): 4 nM; EC50 (TNFα; [2]): 78 nM
CC(C)(CNc1c(C#N)cnc2c(C#N)cc(N[C@H](c3cn(C4(C5CC5)CC4)nn3)c3cccc4ncccc34)cc12)C(F)(F)F [Example 896, (S)-6-(((1-([1,1′-bi(cyclopropan)]-1-yl)-1H-1,2,3-triazol-4-yl)(quinolin-5-yl)methyl)amino)-4-((3,3,3-trifluoro-2,2-dimethylpropyl)amino)quinoline-3,8-dicarbonitrile] | – | – | IC50 (Human Cot; [1]): 3 nM; EC50 (TNFα; [2]): 30 nM
CC(C)n1cc([C@@H](Nc2cc(Cl)c3ncc(C#N)c(Nc4ccc(F)c(Cl)c4)c3c2)c2csc3c2CCN(C)C3)nn1 [Example 345, (S)-8-chloro-4-((3-chloro-4-fluorophenyl)amino)-6-(((1-isopropyl-1H-1,2,3-triazol-4-yl)(6-methyl-4,5,6,7-tetrahydrothieno[2,3-c]pyridin-3-yl)methyl)amino)quinoline-3-carbonitrile] | 3 nM | 73 nM | –

Further lines, with some results ahead:

IC50 (Human Cot; [3]) | EC50 (TNFα; [4]) | SMILES | other results
1 nM | 1000 nM | Cc1nc(F)ccc1[C@H](Nc1cc(C#N)c2ncc(C#N)c(NCC(C)(C)C)c2c1)c1cn(C2(C(N)=O)CC2)nn1 [Example 490, (S)-1-(4-(((3,8-dicyano-4-(neopentylamino)-quinolin-6-yl)amino)(6-fluoro-2-methylpyridin-3-yl)methyl)-1H-1,2,3-triazol-1-yl)cyclopropane-1-carboxamide] | –
2 nM | 40 nM | CC(C)(C)CNc1c(C#N)cnc2c(Cl)cc(N[C@H](c3cn(C4CC4)nn3)c3csc4cnccc34)cc12 [Example 738, (S)-8-chloro-6-(((1-cyclopropyl-1H-1,2,3-triazol-4-yl)(thieno[2,3-c]pyridin-3-yl)methyl)amino)-4-(neopentylamino)quinoline-3-carbonitrile] | –
199 nM | 1000 nM | Cc1nc(F)ccc1[C@H](Nc1cc(Cl)c2ncc(C#N)c(N[C@@H]3CCOC3(C)C)c2c1)c1cn(C2(C(F)F)CC2)nn1 [Example 515, 8-chloro-6-(((S)-(1-(1-(difluoromethyl)-cyclopropyl)-1H-1,2,3-triazol-4-yl)(6-fluoro-2-methylpyridin-3-yl)methyl)amino)-4-(((R)-2,2-dimethyltetrahydro-furan-3-yl)amino)quinoline-3-carbonitrile] | –
3 nM | 461 nM | [2H]C(Nc1cc(Cl)c2ncc(C#N)c(NCC(C)(C)C)c2c1)(c1cn(C2CC2)nn1)c1scnc1C (centres unmarked) [Example 102, 8-chloro-6-(((1-cyclopropyl-1H-1,2,3-triazol-4-yl)(4-methylthiazol-5-yl)methyl-d)amino)-4-(neopentyl-amino)quinoline-3-carbonitrile] | –
3 nM | 133 nM | [2H]C(Nc1cc(Cl)c2ncc(C#N)c(NCC(C)(C)C)c2c1)(c1cn(C2CC2)nn1)c1ccc(F)nc1F (centres unmarked) [Example 103, 8-chloro-6-(((1-cyclopropyl-1H-1,2,3-triazol-4-yl)(2,6-difluoropyridin-3-yl)methyl-d)amino)-4-(neopentylamino)quinoline-3-carbonitrile] | –
